Assay results reported in ChEMBL document CHEMBL1131887, “Blockers of human T cell Kv1.3 potassium channels using de novo ligand design and solid-phase parallel combinatorial chemistry” (Bioorg Med Chem Lett, 1999).

What follows are compounds tested against Potassium voltage-gated channel subfamily A member 3 (Homo sapiens, UniProt P22001) (assay: Displacement of [125I]- ChTX from human T cell voltage-gated potassium channel subunit Kv1.3).
Assay type: cell-based

Potassium voltage-gated channel subfamily A member 3, sequence (P22001 whole entry): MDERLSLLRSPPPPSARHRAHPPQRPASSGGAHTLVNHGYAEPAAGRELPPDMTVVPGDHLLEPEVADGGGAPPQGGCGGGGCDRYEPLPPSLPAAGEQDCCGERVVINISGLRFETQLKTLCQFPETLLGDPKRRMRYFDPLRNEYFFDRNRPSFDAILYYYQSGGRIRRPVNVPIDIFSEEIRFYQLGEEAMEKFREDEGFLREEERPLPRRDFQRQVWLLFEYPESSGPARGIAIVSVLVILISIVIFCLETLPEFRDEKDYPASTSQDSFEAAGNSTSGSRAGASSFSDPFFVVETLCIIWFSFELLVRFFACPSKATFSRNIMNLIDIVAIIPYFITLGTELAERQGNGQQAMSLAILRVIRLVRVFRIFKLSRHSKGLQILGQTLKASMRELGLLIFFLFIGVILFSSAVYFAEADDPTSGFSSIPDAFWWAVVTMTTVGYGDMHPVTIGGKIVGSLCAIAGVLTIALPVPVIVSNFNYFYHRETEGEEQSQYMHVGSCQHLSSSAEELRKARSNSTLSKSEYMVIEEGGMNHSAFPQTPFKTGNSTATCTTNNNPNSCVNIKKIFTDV

In order of falling IC50:
1. CC(C)NC(=O)c1cc(/C=C/c2cccc(Cl)c2)ccc1-c1ccc(Cl)cc1  10.1 µM
2. CC(C)NC(=O)c1cc(/C=C/c2ccc(OCc3ccccc3)cc2)ccc1-c1ccc(Cl)cc1  9.9 µM
3. CCCNC(=O)c1cc(/C=C/c2ccc(F)cc2)ccc1-c1ccc(Cl)cc1  9.7 µM
4. CCCCNC(=O)c1cc(/C=C/c2ccccc2F)ccc1-c1ccc(Cl)cc1  8 µM
5. CCCCNC(=O)c1cc(/C=C/Cc2ccccc2)ccc1-c1ccc(Cl)cc1  6.1 µM
6. CCCNC(=O)c1cc(/C=C/Cc2ccccc2)ccc1-c1ccc(Cl)cc1  5.8 µM
7. CC(C)NC(=O)c1cc(/C=C/Cc2ccccc2)ccc1-c1ccc(Cl)cc1  5.6 µM
8. CCCNC(=O)c1cc(/C=C/CCc2ccccc2)ccc1-c1ccc(Cl)cc1  4 µM
9. NC(N)=NNC(=O)c1cc(/C=C/c2ccc(F)cc2)ccc1-c1ccc(Cl)cc1  3.9 µM
10. CC(C)NC(=O)c1cc(/C=C/c2ccc(Cl)c(F)c2)ccc1-c1ccc(Cl)cc1  3.7 µM
11. CCNC(=O)c1cc(/C=C/CCc2ccccc2)ccc1-c1ccc(Cl)cc1  3.2 µM
12. CNC(=O)c1cc(/C=C/c2ccc(OCc3ccccc3)c(OCc3ccccc3)c2)ccc1-c1ccc(Cl)cc1  2.9 µM
13. CCCCC/N=c1\ccn(Cc2ccccc2)c2ccccc12 [CP-339818]  0.2 µM
